The text below walks through data of patent publication US12336981B2, “Compounds and compositions for the inhibition of NAMPT” (Valo Health, Inc., priority 2010, dated 2025).

The target of one assay is T1, NAMPT (Homo sapiens, UniProt P43490).
T1 construct: His tag; host or cells: E. coli
Nature of the assay: Biochemical inhibition assay: NAMPT enzymatic reaction, NMN quantified by mass spectrometry. The following applies: NAMPT enzymatic assay; read-out: Biochem IC50. An outline of the steps:
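Inhibition of E. coli-expressed His-tagged human NAMPT, measured as NMN formation by mass spectrometry after a 30 min room-temperature reaction containing 1 μM NAM, 100 μM PRPP and 2.5 mM ATP.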

Another assay deals with A2780 cells. Nature of the assay: In-vitro cell proliferation assay (SRB), A2780 cells. It is filed as cell-based. The settings on record: Homo sapiens, A2780, 72 h, A2780 cells, 72 hours, SRB; read-out: A2780 IC50. An outline of the steps: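 Cells were plated overnight at 37° C., 5% CO2, then exposed to serially diluted compounds (0.1% DMSO final) for 72 hours. Viable cells were measured by sulforhodamine B staining after TCA fixation, read at 570 nm; media-only background was subtracted before % inhibition was calculated.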

T1 sequence (P43490 whole entry): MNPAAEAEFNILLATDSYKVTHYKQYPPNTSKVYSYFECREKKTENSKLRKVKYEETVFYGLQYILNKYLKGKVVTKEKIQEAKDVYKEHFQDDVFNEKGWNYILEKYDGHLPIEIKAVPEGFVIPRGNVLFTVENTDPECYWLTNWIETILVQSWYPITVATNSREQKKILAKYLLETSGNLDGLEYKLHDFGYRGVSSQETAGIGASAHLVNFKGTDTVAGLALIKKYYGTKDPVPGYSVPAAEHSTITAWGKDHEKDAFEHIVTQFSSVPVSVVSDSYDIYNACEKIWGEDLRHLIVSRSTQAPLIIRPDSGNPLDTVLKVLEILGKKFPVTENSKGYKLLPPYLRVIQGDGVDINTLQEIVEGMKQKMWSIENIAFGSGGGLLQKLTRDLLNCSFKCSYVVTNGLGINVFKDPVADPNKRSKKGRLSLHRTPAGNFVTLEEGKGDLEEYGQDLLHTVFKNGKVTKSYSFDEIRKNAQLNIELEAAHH

A word on the IC50: it is the point on the concentration scale where inhibition reaches its midpoint. Take `O=C(NCc1ccc(S(=O)(=O)c2ccc(-n3ccnc3)cc2)cc1)c1cnc2nccn2c1`: the IC50 on NAMPT is < 0.65 nM; in the assay with A2780 cells it was 12.2 nM.

Turning to `O=C(NCc1ccc(S(=O)(=O)c2ccc(Cn3ccnc3)cc2)cc1)c1cc2ccncc2s1`, the IC50 at NAMPT was found to be 5.3 nM; in the assay with A2780 cells it was 12.2 nM.

Consider `O=C(NCc1ccc(S(=O)(=O)c2ccc(-n3cccn3)cc2)cc1)c1cc2ccncc2o1`, for which the IC50 at NAMPT turned out to be 4.1 nM; in the assay on A2780 cells it was 7.3 nM.

Regarding `O=C(NCc1ccc(S(=O)(=O)c2ccc(-n3cccn3)cc2)cc1)c1cnc2[nH]ncc2c1`, the figures for the IC50 on NAMPT and with A2780 cells were 12.3 nM and 7.5 nM, respectively.

Consider `CC(C)COc1ccc(S(=O)(=O)c2ccc(CNC(=O)c3cc4ccncc4o3)cc2)cc1`, for which the figures for the IC50 at NAMPT and in the assay with A2780 cells were 9.4 nM and 11.6 nM, respectively.

Take `CC(C)COc1ccc(S(=O)(=O)c2ccc(CNC(=O)c3cnc4nccn4c3)cc2)cc1`: the IC50 at NAMPT stood at 5.5 nM; in the assay on A2780 cells, 5.2 nM.

Take `CC(C)COc1ccc(S(=O)(=O)c2ccc(CNC(=O)c3cc4cnccc4[nH]3)cc2)cc1`: the IC50 on NAMPT is 12.7 nM; with A2780 cells, 9.4 nM.

For the compound `CC(C)COc1ccc(S(=O)(=O)c2ccc(CNC(=O)c3ccc4nccn4c3)cc2)cc1`, the IC50 is 2.2 nM at NAMPT and 2.7 nM with A2780 cells.

As to `CC(C)COc1ccc(S(=O)(=O)c2ccc(CNC(=O)c3cc4ccncc4s3)cc2)cc1`, the IC50 came out at 4 nM at NAMPT and 10.3 nM with A2780 cells.

`CN1CCN(c2ccc(S(=O)(=O)c3ccc(CNC(=O)c4cc5ccncc5o4)cc3)cc2)CC1`: the figures for the IC50 at NAMPT and with A2780 cells were 1 nM and 0.5 nM, respectively.

For `CN1CCN(c2ccc(S(=O)(=O)c3ccc(CNC(=O)c4cc5cnccc5[nH]4)cc3)cc2)CC1`, the IC50 was determined as 3 nM at NAMPT and 0.8 nM with A2780 cells.

As to `CN1CCN(c2ccc(S(=O)(=O)c3ccc(CNC(=O)c4cnc5[nH]ncc5c4)cc3)cc2)CC1`, the figures for the IC50 at NAMPT and with A2780 cells were 4 nM and 1.3 nM, respectively.

Turning to `CN1CCN(c2ccc(S(=O)(=O)c3ccc(CNC(=O)c4cc5ccncc5s4)cc3)cc2)CC1`, the IC50 is 1 nM at NAMPT and 0.3 nM in the assay on A2780 cells.

Turning to `CN1CCN(c2ccc(S(=O)(=O)c3ccc(CNC(=O)c4ccc5nccn5c4)cc3)cc2)CC1`, the values for the IC50 at NAMPT and in the assay with A2780 cells were 1 nM and 0.2 nM, respectively.

Regarding `CCOCc1ccc(S(=O)(=O)c2ccc(CNC(=O)c3cc4ccncc4o3)cc2)cc1`, the IC50 was 4.9 nM at NAMPT and 6.6 nM in the assay on A2780 cells.

Take `CCOCc1ccc(S(=O)(=O)c2ccc(CNC(=O)c3cnc4nccn4c3)cc2)cc1`: the IC50 on NAMPT was 2.7 nM; in the assay with A2780 cells, 5.2 nM.

With `CCOCc1ccc(S(=O)(=O)c2ccc(CNC(=O)c3cc4cnccc4[nH]3)cc2)cc1`, the IC50 at NAMPT turned out to be 22.5 nM; with A2780 cells, 6.8 nM.

As to `CCNC(=O)c1ccc(S(=O)(=O)c2ccc(CNC(=O)c3cc4ccncc4o3)cc2)cc1`, the figures for the IC50 at NAMPT and in the assay with A2780 cells were 4.5 nM and 6.7 nM, respectively.

With `CCNC(=O)c1ccc(S(=O)(=O)c2ccc(CNC(=O)c3cc4cnccc4[nH]3)cc2)cc1`, the IC50 at NAMPT was found to be 14.5 nM; with A2780 cells, 14.1 nM.

`CCNC(=O)c1ccc(S(=O)(=O)c2ccc(CNC(=O)c3ccc4nccn4c3)cc2)cc1`: the IC50 at NAMPT came out at 12 nM; in the assay on A2780 cells, 6.3 nM.

With `CCNC(=O)c1ccc(S(=O)(=O)c2ccc(CNC(=O)c3cnc4nccn4c3)cc2)cc1`, the IC50 on NAMPT amounted to 22.6 nM; in the assay with A2780 cells, 87.8 nM.

As for `CCNC(=O)c1ccc(S(=O)(=O)c2ccc(CNC(=O)c3cc4ccncc4s3)cc2)cc1`, the IC50 at NAMPT was found to be 1.5 nM; in the assay with A2780 cells it was 3.3 nM.

On to `O=C(NCc1ccc(S(=O)(=O)c2ccc(CO)cc2)cc1)c1ccc2nccn2c1`, for which the IC50 at NAMPT was determined as 14.2 nM; in the assay with A2780 cells, 12.9 nM.

Regarding `O=C(NCc1ccc(S(=O)(=O)c2ccc(CO)cc2)cc1)c1cc2ccncc2o1`, the IC50 at NAMPT was found to be 4.9 nM; in the assay with A2780 cells, 6.2 nM.

Take `O=C(NCc1ccc(S(=O)(=O)c2ccc(N3CCOCC3)cc2)cc1)c1cc2ccncc2o1`: the IC50 on NAMPT amounted to 4.6 nM; with A2780 cells, 2.5 nM.
